# Test results published in publication PMC12670405, “Second-Generation AURKA-Targeting PROTACs: Structural Optimization toward in Vivo Degradation in Neuroblastoma” (Journal of Medicinal Chemistry, 2025).
# Read-outs that look alike come from different tables or passages of the source.
# Columns and labels:
# IMR-32 = test: IncuCyte live-cell imaging, antiproliferative effect; format: cell-based; settings: Homo sapiens, IMR-32, 72 h, read-out: Cell GI50 72h, IMR-32
# Procedure, shortened: (§1)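 Cells seeded in 384-well plates (neuroblastoma 1200–5000, HEK293T 600 cells/well), adhered overnight, then compound-treated in duplicate or triplicate; confluency tracked by IncuCyte live-cell imaging. Normalized confluence averaged from 3 experiments; absolute GI50 interpolated from four-parameter variable-slope curves.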
# AURKA = biological target: T1, AURKA (Homo sapiens, UniProt O14965); test: AURKA protein levels, Western blot in SH-SY5Y with ABCB1 knockdown; format: cell-based; set-up: endogenous in cells; settings: 1 μM, 24h
# T1 sequence (O14965 1-403): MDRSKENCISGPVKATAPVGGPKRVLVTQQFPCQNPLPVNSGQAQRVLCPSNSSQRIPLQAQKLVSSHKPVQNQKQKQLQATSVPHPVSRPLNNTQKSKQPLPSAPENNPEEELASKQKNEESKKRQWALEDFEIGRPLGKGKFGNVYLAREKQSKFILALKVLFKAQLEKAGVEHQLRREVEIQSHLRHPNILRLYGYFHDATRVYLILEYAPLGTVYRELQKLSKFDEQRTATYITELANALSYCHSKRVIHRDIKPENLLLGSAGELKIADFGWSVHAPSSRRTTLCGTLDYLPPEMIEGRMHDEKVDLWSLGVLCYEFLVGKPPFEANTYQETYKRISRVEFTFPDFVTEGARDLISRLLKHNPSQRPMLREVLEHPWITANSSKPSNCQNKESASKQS
# HEK293T = test: IncuCyte live-cell imaging, antiproliferative effect; format: cell-based; settings: Homo sapiens, HEK-293T
# Procedure, shortened: as §1
# BAZ2A = test: LC-MS/MS proteome profiling; format: cell-based, Homo sapiens; settings: SK5527 vs DMSO (24h)
# Description: (§2) Analysis of the mass spectrometry data was performed in DiaNN (version 1.9). Precursor false discovery rate was set at 1%. Spectra were searched against the Homo sapiens protein sequences in the Uniprot database (database release version of 2024_01), containing 20,597 sequences (www.uniprot.org) and the imbedded protein contaminant list. Enzyme specificity was set as C-terminal to arginine and lysine, also allowing cleavage at proline bonds with a maximum of 2 missed cleavages. Variable modifications were set to oxidation of methionine residues and acetylation of protein N-termini while fixed modification was set to carbamidomethylation of cystein residues. Matching between runs was enabled. Mainly default settings were used, except for the addition of a 400-900 m/z precursor mass range filter and MS1 and MS2 mass tolerance was set to 10 and 20 ppm respectively.
# (§3) Further data analysis of the results was performed with an in-house script in the R programming language.
# (§4) Protein expression matrices were prepared as follows: the DIA-NN main report output table was filtered at a precursor and protein library q-value cut-off of 1 % and only proteins identified by at least one proteotypic peptide were retained. After pivoting into a wide format, iBAQ intensity columns were then added to the matrix using the DIAgui’s R package get_IBAQ function. PG MaxLFQ intensities were log2 transformed and replicate samples were grouped. Proteins with less than 3 valid values in at least one group were removed and missing values were imputed from a normal distribution centered around the detection limit (package DEP) leading to a list of 7,759 quantified proteins in the experiment, used for further data analysis. […]
# (§5) Statistical significance for differential regulation was set to a false discovery rate (FDR) of < 0.05 and |log2FC| = 2.
# ESCO2 = test: LC-MS/MS proteome profiling; format: cell-based, Homo sapiens; settings: SK5527 vs DMSO (24h)
# Description: as §2, §3, §4, §5
# ETV3 = test: LC-MS/MS proteome profiling; format: cell-based, Homo sapiens; settings: SK5527 vs DMSO (24h)
# Description: as §2, §3, §4, §5
# FAM204A = test: LC-MS/MS proteome profiling; format: cell-based, Homo sapiens; settings: SK5527 vs DMSO (24h)
# Description: as §2, §3, §4, §5
# MTERF3 = test: LC-MS/MS proteome profiling; format: cell-based, Homo sapiens; settings: SK5527 vs DMSO (24h)
# Description: as §2, §3, §4, §5
# ZNF286A = test: LC-MS/MS proteome profiling; format: cell-based, Homo sapiens; settings: SK5527 vs DMSO (24h)
# Description: as §2, §3, §4, §5
# ZNF417 = test: LC-MS/MS proteome profiling; format: cell-based, Homo sapiens; settings: SK5527 vs DMSO (24h)
# Description: as §2, §3, §4, §5
# ZNF770 = test: LC-MS/MS proteome profiling; format: cell-based, Homo sapiens; settings: SK5527 vs DMSO (24h)
# Description: as §2, §3, §4, §5
# ABCA3 = test: LC-MS/MS proteome profiling; format: cell-based, Homo sapiens; settings: SK5527 vs DMSO (24h)
# Description: as §2, §3
# as §4, with “analysis. To compare protein abundance” for “analysis.”
# (§6) 24h MK-5108 vs 24h DMSO sample groups), statistical testing for differences between two group means was performed, using the package limma. Statistical significance for differential regulation was set to a false discovery rate (FDR) of < 0.05 and |log2FC| = 2.
# SRSF10 = test: LC-MS/MS proteome profiling; format: cell-based, Homo sapiens; settings: SK5527 vs DMSO (24h)
# Description: as §2, §3
# as §4, with “analysis. To compare protein abundance” for “analysis.”
# as §6
Compound,GI50 (IMR-32) [nM],"AURKA degradation, ABCB1 knockdown compared to wild-type (in words) (AURKA)","GI50 (HEK293T; 72 h, read-out: Cell GI50 72h) [nM]","GI50 (HEK293T; 72h, read-out: GI50) [nM]",logFC BAZ2A (BAZ2A),logFC ESCO2 (ESCO2),logFC ETV3 (ETV3),logFC FAM204A (FAM204A),logFC MTERF3 (MTERF3),logFC ZNF286A (ZNF286A),logFC ZNF417 (ZNF417),logFC ZNF770 (ZNF770),logFC ABCA3 (ABCA3),logFC SRSF10 (SRSF10)
"O=C1CCC(N2C(=O)c3cccc(OCCOCCOCCOCCNC(=O)[C@]4(Cc5cccc(Nc6nccs6)n5)CC[C@@H](Oc5cccc(Cl)c5F)CC4)c3C2=O)C(=O)N1 (some centres unmarked) [SK2188, reference compound]",10,stronger AURKA degradation,,,,,,,,,,,,
Cc1cc(Nc2ccc(F)c(CC3(C(=O)N4CCC(F)(CN5CCN(c6ccc(N7CCC(=O)NC7=O)cn6)CC5)CC4)CCN(Cc4cccc(Cl)c4F)CC3)n2)n[nH]1 [SK5527],,,408,~500,2.83,-2.1,-2.36,2.65,-2.09,-2.95,-2.12,-4,-4.59,2.01
